Test results: publication PMC11352099 (RSC Medicinal Chemistry, 2024)
Like-named read-outs stand apart in the source and are kept apart here.

What was measured:
in vitro [1] = conditions: human; for efflux ratio at 2 h, 10 µM: Caco-2; for Papp A→B at 2 h, 10 µM / Papp B→A at 2 h, 10 µM: Caco-2, pH 7.4
Protocol: (§1) 3.5. Caco-2 permeability assay
(§2) Transepithelial bi-directional transport of compounds (10 µM, pH 7.4/7.4) was tested on 21-day differentiated Caco-2 monolayers. Briefly, the cells were seeded at a density of 67 ,500 cells per 96-well plate insert (Millicell®, Merck KGaA, Darmstadt, Germany). They were left to differentiate for 21 days with medium exchange every 2–3 days. Prior to the experiment, the medium from both apical and basolateral well was exchanged for HBSS buffer (containing 10 mM HEPES and 25 mM glucose) and left to equilibrate for 30 min. Compound permeability was assayed by replacing pure HBSS with HBSS containing 10 μM compounds and 220 μM Lucifer yellow (LY) solution in an apical insert (A to B transport) or in a basolateral well (B to A transport). The tre ated cells were then returned to the incubator for 2 h at 37 °C. After that, samples were collected from both apical inserts and basolateral wells and analyzed using LC -MS/MS (SCIEX Triple Quad™ 7500 QTRAP® Ready). LC separation was done on Synergi 4µm Fusion 50 × 2 mm column (Phenomenex) using a water/acetonitrile gradient with 0.1% formic acid starting from 2 to 98% for 4.5 min.
(§3) The apparent permeability coefficient (Papp) was calculated from t he following equation: Papp = (dQ / dt) / C0 * A, where dQ/dt is the rate of absorption of the drug across the cells, C0 is the donor compartment concentration at time zero, and A is the area of the monolayer. Efflux ratio was expressed as (Papp B -A) / (Papp A-B). Recovery (%) was determined as (total compound mass i n donor and receiver compartments at the end of the incubation / initial compound mass in the donor compartment) x 100. The data represent means ± SD of two independent experiments performed in triplicate. […]
(§4) were used as control compounds.

Caco-2 monolayers = experiment: in vitro; conditions: Caco-2
Protocol: as §1, §2, §3, §4

SARS-CoV-2 nsp14 MTase = SARS-CoV-2 nsp14 MTase (Severe acute respiratory syndrome coronavirus 2, UniProt P0DTD1); experiment: biochemical; assay type: biochemical; conditions: for Hill slope: Table S1, dose-response curve, variable slope model
[2] = for Plasma stability % of the parent compound after 120 min, Mouse: 10 μM
[3] = microsomes, 0.75 h, 10 µM, pH 7.4
[4] = for Plasma stability % of the parent compound after 120 min, Human: 10 μM
[5] = microsomes, 0.75 h, 10 µM, pH 7.4; remark: listed apart in the source
[6] = tested on: SARS-CoV-2 strain hCoV-19/Czech Republic/NRL_6632_2/2020; experiment: microbe, parasite or virus in culture; assay type: cell-based; conditions: Calu-3 cell line, read-out: EC50 (antiviral effect)
human RNMT = human RNMT (Homo sapiens, UniProt O43148); experiment: Off-target inhibition of human RNMT; assay type: biochemical; conditions: for inhibitory activity against RNMT: 25 μM concentration of inhibitor
Excerpt: Human cells rely on several MTases; therefore, it is necessary to assess the possible off-target effect. […]

in vitro [7] = conditions: human
[8] = Table 1 and text, N.I., no inhibition, read-out: IC50
[9] = Table S1, read-out: IC50 (inhibitory activity)
[10] = Severe acute respiratory syndrome coronavirus 2
[11] = Table 1 and text, N.I., no inhibition

Chain of human RNMT (O43148 whole entry): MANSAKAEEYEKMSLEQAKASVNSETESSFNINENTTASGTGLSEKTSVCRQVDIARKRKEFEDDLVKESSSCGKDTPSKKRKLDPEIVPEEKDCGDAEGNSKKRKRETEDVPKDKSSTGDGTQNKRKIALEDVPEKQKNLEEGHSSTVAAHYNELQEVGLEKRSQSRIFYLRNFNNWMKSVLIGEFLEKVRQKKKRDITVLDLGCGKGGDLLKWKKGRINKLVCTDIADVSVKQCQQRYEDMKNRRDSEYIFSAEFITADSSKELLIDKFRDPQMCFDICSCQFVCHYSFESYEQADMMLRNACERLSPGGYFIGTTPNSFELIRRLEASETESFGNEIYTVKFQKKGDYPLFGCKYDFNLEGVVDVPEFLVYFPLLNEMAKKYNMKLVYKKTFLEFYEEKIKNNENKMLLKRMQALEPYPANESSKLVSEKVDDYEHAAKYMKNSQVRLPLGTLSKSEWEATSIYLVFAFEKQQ

SMILES | recovery at 2 h, 10 µM (in vitro [1]; Caco-2, Recovery (%) A-B) [%] | Papp B→A at 2 h, 10 µM (in vitro [1]) [×10⁻⁶ cm/s] | Papp B-A (Caco-2 monolayers) [cm/s x 10-6] | IC50 (SARS-CoV-2 nsp14 MTase; [8]) [µM] | Hill slope (SARS-CoV-2 nsp14 MTase) | IC50 (SARS-CoV-2 nsp14 MTase; [9]) [µM] | Plasma stability % of the parent compound after 120 min, Mouse [2] [%] | Microsomal stability % of the parent compound after 45 min, Mouse [3] [%] | Plasma stability % of the parent compound after 120 min, Human [4] [%] | Microsomal stability % of the parent compound after 45 min, Human [5] [%] | inhibitory activity against nsp14 (in words) (SARS-CoV-2 nsp14 MTase) | further results
Nc1ncnc2c1ncn2[C@@H]1O[C@H](C(=O)Nc2ccc3c(C(F)(F)F)cc(=O)oc3c2)[C@@H](O)[C@H]1O [12m] | 96 | 32.9 ± 5.3 | 32.9 ± 5.3 | 1.47 ± 0.14 | -1.01 | 1.47 | 67 ± 3.5 | 93 ± 9.4 | 20 ± 1.4 | 90 ± 9.1 |  | efflux ratio at 2 h, 10 µM (in vitro [1]): 4.1; recovery at 2 h, 10 µM (in vitro [1]; Caco-2, Recovery (%) B-A): 130%; Papp A→B at 2 h, 10 µM (in vitro [1]): 8 ± 2.9 ×10⁻⁶ cm/s; Papp A-B (Caco-2 monolayers): 8.0 ± 2.9 cm/s x 10-6; stability in mouse plasma (in words) ([2]; plasma): unstable; stability in human plasma (in words) ([4]; plasma): unstable
Cc1cc(=O)[nH]c2cc(NC(=O)[C@H]3O[C@@H](n4cnc5c(N)ncnc54)[C@H](O)[C@@H]3O)ccc12 [12n] | 79 | 2.2 ± 0.4 | 2.2 ± 0.4 | 0.35 ± 0.04 | -1.19 |  | 78 ± 0.3 | 90 ± 2.9 | 97 ± 2.0 | 95 ± 0.0 |  | efflux ratio at 2 h, 10 µM (in vitro [1]): 0.5; recovery at 2 h, 10 µM (in vitro [1]; Caco-2, Recovery (%) B-A): 87%; Papp A→B at 2 h, 10 µM (in vitro [1]): 4.4 ± 1.8 ×10⁻⁶ cm/s; Papp A-B (Caco-2 monolayers): 4.4 ± 1.8 cm/s x 10-6; EC50 [6, 10]: > 50 µM; inhibitory activity against RNMT (human RNMT): None of the tested compounds exhibited any inhibitory activity
Nc1ncnc2c1ncn2[C@@H]1O[C@H](C(=O)Nc2ccc3c(c2)NC(=O)CC3)[C@@H](O)[C@H]1O [12o] |  |  |  | 6.55 ± 1.44 | -0.91 | 6.55 |  |  |  |  |  | 
Nc1ncnc2c1ncn2[C@@H]1O[C@H](C(=O)Nc2ccc3cccnc3c2)[C@@H](O)[C@H]1O [12p] |  |  |  | 4.81 ± 2.54 | -1.45 | 4.81 |  |  |  |  |  | 
Cc1cc(=O)oc2cc(NC(=O)[C@H]3O[C@@H](n4cc(C#Cc5cncnc5)c5c(N)ncnc54)[C@H](O)[C@@H]3O)ccc12 [18l] | 87 | 8.3 ± 0.5 | 8.3 ± 0.5 | 0.031 ± 0.005 | -1.09 |  | 89 ± 1.1 | 84 ± 2.5 | 74 ± 0.2 | 90 ± 4.2 |  | CC50 at 3 days (in vitro [7]): > 50 µM; EC50 ([6]; Severe acute respiratory syndrome coronavirus 2, 72 h, MOI ∼0.01, 3 days): 12 ± 6 µM; IC50 (human RNMT): > 25 µM; inhibitory activity against RNMT (human RNMT): None of the tested compounds exhibited any inhibitory activity
Cc1cc(=O)[nH]c2cc(N(C)C(=O)[C@H]3O[C@@H](n4cc(C#Cc5cncnc5)c5c(N)ncnc54)[C@H](O)[C@@H]3O)ccc12 [18q] | 89 | 2.1 ± 0.4 | 2.1 ± 0.4 | 0.89 ± 0.12 | -1.02 | 0.891 | 86 ± 0.9 | 117 ± 10.9 | 80 ± 1.1 | 107 ± 6.6 |  | efflux ratio at 2 h, 10 µM (in vitro [1]): 1; recovery at 2 h, 10 µM (in vitro [1]; Caco-2, Recovery (%) B-A): 101%; Papp A→B at 2 h, 10 µM (in vitro [1]): 2 ± 0.3 ×10⁻⁶ cm/s; Papp A-B (Caco-2 monolayers): 2.0 ± 0.3 cm/s x 10-6; EC50 [6, 10]: > 50 µM; inhibitory activity against RNMT (human RNMT): None of the tested compounds exhibited any inhibitory activity
COC(=O)c1ccc(C(=O)NC[C@H]2O[C@@H](n3cnc4c(N)ncnc43)[C@H](O)[C@@H]2O)cc1 [21a] |  |  |  |  |  |  |  |  |  |  | significant decrease or complete loss of the inhibitory activity | IC50 (SARS-CoV-2 nsp14 MTase; [11]): N.I.
Nc1ncnc2c1ncn2[C@@H]1O[C@H](CNC(=O)c2ccc3c(c2)OCCO3)[C@@H](O)[C@H]1O [21k] |  |  |  |  |  |  |  |  |  |  | significant decrease or complete loss of the inhibitory activity | IC50 (SARS-CoV-2 nsp14 MTase; [11]): N.I.
Nc1ncnc2c1ncn2[C@@H]1O[C@H](CNS(=O)(=O)c2ccc3c(c2)OCCO3)[C@@H](O)[C@H]1O [22k] |  |  |  | 15.3 ± 2.55 | -1.55 |  |  |  |  |  | significant decrease or complete loss of the inhibitory activity | 
C[C@H]1O[C@@H](O[C@H]2[C@@H](O)C[C@H](O[C@H]3[C@@H](O)C[C@H](O[C@H]4CC[C@@]5(C)[C@H](CC[C@@H]6[C@@H]5C[C@@H](O)[C@]5(C)[C@@H](C7=CC(=O)OC7)CC[C@]65O)C4)O[C@@H]3C)O[C@@H]2C)C[C@H](O)[C@@H]1O [Digoxin, reference compound] |  |  |  |  |  |  |  |  |  |  |  | recovery at 2 h, 10 µM (in vitro [1]; Caco-2, Recovery (%) A-B, Table S2, A to B transport): 131%; recovery at 2 h, 10 µM (in vitro [1]; Caco-2, Recovery (%) B-A, Table S2, B to A transport): 77%
Cc1cc(=O)oc2cc(SC[C@H]3O[C@@H](n4cnc5c(N)ncnc54)[C@H](O)[C@@H]3O)ccc12 [compound 24] |  |  |  | 3.67 ± 0.4 | -1.04 | 3.67 |  |  |  |  | significant decrease or complete loss of the inhibitory activity | 
Cc1cc(=O)oc2cc(S(=O)(=O)C[C@H]3O[C@@H](n4cnc5c(N)ncnc54)[C@H](O)[C@@H]3O)ccc12 [compound 25] |  |  |  | > 25 |  |  |  |  |  |  | significant decrease or complete loss of the inhibitory activity | 
